# Data as given in patent US7790716B2, “Fab I inhibitors” (Affinium Pharmaceuticals, Inc., priority 1999, dated 2010).
# Biological target: T1, FabK (Streptococcus pneumoniae, UniProt Q9FBC5)
# T1 sequence (Q9FBC5 1-324): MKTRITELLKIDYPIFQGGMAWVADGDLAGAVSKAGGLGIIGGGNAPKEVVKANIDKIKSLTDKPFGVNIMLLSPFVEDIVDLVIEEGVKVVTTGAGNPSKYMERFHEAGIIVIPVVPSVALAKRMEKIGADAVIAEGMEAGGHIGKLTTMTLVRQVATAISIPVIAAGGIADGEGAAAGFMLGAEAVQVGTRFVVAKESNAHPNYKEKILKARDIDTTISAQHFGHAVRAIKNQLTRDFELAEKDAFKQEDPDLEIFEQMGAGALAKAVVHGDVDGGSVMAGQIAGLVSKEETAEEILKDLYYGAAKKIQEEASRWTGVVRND
# Assay: FabK Enzyme Inhibition Assay
# Type: biochemical
# Description: FabK catalyses the reduction of enoyl-ACPs with the concomitant oxidation of NADH. The reduction of crotonoyl-ACP to butyryl-ACP can be monitored by following the change in absorbance at 340 nm as NADH is oxidized.
# Assays were carried out in Costar 3696 half-area plates in a final assay volume of 150 uL on a Spectramax platereader. The substrates (NADH and crotonoyl-ACP) were incubated with FabK enzyme in 100 mM N-[2-acetamido]-2 iminodiacetic acid (ADA), pH 6.5, 100 mM NH4Cl, 4% glycerol at 30° C. and the reaction was monitored at 340 nm.
# Using the above assay, compounds were tested for inhibition of FabK. 30 uL of inhibitor was added to a well of the plate. 30 uL of a 250 uM stock of NADH and 60 uL of a 67.5 uM stock of crotonoyl ACP were then added to the well. The plate was incubated at 30° C. for 5 min. The reaction was initiated by adding 30 uL of a 6.25 nM stock of enzyme to the well (also pre-incubated at 30° C.). The reaction was then monitored at A340 nm for 30 min at 30° C. Positive controls were reactions without compound. Negative controls were reactions without enzyme and without compound. Final concentrations in the assay mixture were 25 uM crotonoyl-ACP, 50 uM NADH, and 1.25 nM enzyme.
# IC50s were determined for compounds by carrying out the assay at 8 different concentrations of compound (100 uM-0.75 uM) in duplicate. The IC50 was calculated using Grafit software (v 4.09). […]
structure (smiles),measurement,value
"CN(Cc1cn(C)c2ccccc12)C(=O)/C=C/c1cnc2c(c1)CCC(=O)N2 [Example 62, (E)-N-methyl-N-(1-methyl-1H-indol-3-ylmethyl)-3-(7-oxo-5,6,7,8-tetrahydro-1,8-naphthyridin-3-yl)acrylamide]",Fab K inhibition (result in words),dual Fab I/Fab K inhibitors
